Entries after “also recorded” stand apart in the source; their conditions may differ. Read-outs that look alike come from different tables or passages of the source.
Columns and labels:
[1] = target: T1, Corticosteroid Binding Globulin (CBG), transcortin (Homo sapiens, UniProt P08185); conditions: cited from earlier work; for Class: CBG binding activity class; for Log 1/K: CBG binding affinity, literature data
T1 sequence (P08185 23-405): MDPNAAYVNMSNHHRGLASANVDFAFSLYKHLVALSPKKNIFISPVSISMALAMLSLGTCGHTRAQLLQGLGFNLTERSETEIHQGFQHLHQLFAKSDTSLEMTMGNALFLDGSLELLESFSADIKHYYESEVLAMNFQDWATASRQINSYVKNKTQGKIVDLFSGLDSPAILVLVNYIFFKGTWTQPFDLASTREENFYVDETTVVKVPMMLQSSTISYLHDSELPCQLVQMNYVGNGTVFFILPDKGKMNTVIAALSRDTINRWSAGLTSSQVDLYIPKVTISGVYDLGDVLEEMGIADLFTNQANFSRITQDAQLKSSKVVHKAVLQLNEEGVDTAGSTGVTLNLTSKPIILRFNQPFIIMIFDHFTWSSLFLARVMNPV

transcortin (CBG) = target: T2, transcortin (CBG) (Homo sapiens, UniProt P08185); assay: Binding of corticosteroids to transcortin: 3H-cortisol competition in charcoal-treated diluted plasma
T2 construct: from tissue; host or cells: plasma from venous blood of healthy volunteers, charcoal-treated, diluted 100-fold
T2 sequence (P08185 23-405): T1 sequence (P08185 23-405)
Method: Experimental procedure: Venous blood was collected from healthy volunteers into heparin-containing tubes (5 Us/100 ml serum) and cells were separated from plasma by centrifugation (1500 g for 15 min). […] Charcoal-treated plasma was diluted 100-fold with binding buffer (10 mM Tris-HCl; 2 mM DTT (dithiotreitol); 1.5 mM EDTA; 0.02 M Na2MoO4; 10% Glycerol; pH 7.4) and was stored aliquoted at −80° C. […] The assay ingredients were mixed and the tubes were incubated for 1 hour on ice. At the end of the incubation, 0.2 ml of charcoal suspension (0.5% Norit A and 0.05% BSA) was added to each tube. The tubes were briefly agitated and incubated for an additional 10 min at 0° C. They were then centrifuged for 10 min at 15 000 g, and the same aliquots from the clear supernatants were quantitatively decanted into counting vials and combined with 3 ml of toluene-based scintillation fluid. […] Specific binding and IC50-values were calculated.

[2] = system: forearms of human volunteers; assay: Human vasoconstriction (blanching) testing; format: in vivo; design: key to Vasoconstriction activity (total score of 4 tests): sum of 4 tests, each 0 = normal skin to 4 = very intense pallor
Method: Solutions of LE, HC and PRN (0.1 or 1 mM) alone, or mixtures of LE and HC (0.1+0.1 mM, or 1+1 mM), or LE and PRN (0.1+0.1 mM, or 1+1 mM) were prepared with a vehicle containing absolute ethanol and propylene glycol (9:1). […] After evaporation of ethanol (20 min), the films were applied to the forearms of human volunteers for 4 hours. Subsequently, the vasoconstriction reaction was read and judged by the appearance of pallor at various time intervals after the removal of the discs and films. The grading scale was as follows: 0, normal skin; 1, slight pallor; 2, pallor with at least two corners outlined; 3, even pallor with a clear outlined of the application sites; 4, very intense pallor. Due to the relatively high variations in response between the volunteers, a total score of 4 tests at each time point was taken for the activity evaluation.

[3] = estimated, unpublished results Bodor, Kurucz 2006, read-out: CBG Est. IC50
[4] = 3 nM 3H-cortisol, 1 hour on ice, plasma diluted 100-fold, read-out: IC50-values (nM) average ± SEM (n)

SMILES	Class [1]	Log 1/K [1]	also measured
CC(=O)[C@H]1CC[C@H]2[C@@H]3CCC4=CC(=O)CC[C@@H]4[C@H]3CC[C@]12C [19-norprogesterone]	2	−6.817	
C[C@]12CCC(O)C[C@@H]1CC[C@@H]1[C@@H]2CC[C@]2(C)[C@@H](O)CC[C@@H]12 (stereo partly drawn) [androstanediol]	3	−5.000	
C[C@@H]1C[C@H]2[C@@H]3CCC4=CC(=O)C=C[C@]4(C)[C@@]3(Cl)[C@@H](O)C[C@]2(C)[C@@]1(OC(=O)c1ccco1)C(=O)CCl [Mometasone furoate]			IC50 (transcortin (CBG); [3]): > 10000 nM
C[C@]12CC[C@H]3[C@@H](CCC4=CC(=O)CC[C@@]43C)[C@@H]1CC[C@@H]2O [testosterone]	2	−6.724	
CC(=O)[C@@]1(O)CC[C@H]2[C@@H]3CC=C4C[C@@H](O)CC[C@]4(C)[C@H]3CC[C@@]21C [17α-hydroxypregnenolone]	3	−5.000	
CC(=O)[C@H]1CC[C@H]2[C@@H]3CCC4=CC(=O)CC[C@]4(C)[C@H]3CC[C@]12C [progesterone]	1	−7.380	
CC(=O)[C@H]1CC[C@H]2[C@@H]3CCC4=CC(=O)CC[C@]4(C)[C@H]3C(=O)C[C@]12C [4-pregnene-3,11,20-trione]	2	−6.779	
CCCC1O[C@@H]2C[C@H]3[C@@H]4CCC5=CC(=O)C=C[C@]5(C)[C@H]4[C@@H](O)C[C@]3(C)[C@]2(C(=O)CO)O1 (stereo partly drawn) [budesonide (BUD), budesonide]			IC50 (transcortin (CBG); [3]): > 10000 nM
C[C@]12CC[C@H]3[C@@H](CCC4=CC(=O)CC[C@@H]43)[C@@H]1CC[C@@H]2O [19-nortestosterone]	2	−6.144	
C[C@]12CC[C@@H]3c4ccc(O)cc4CC[C@H]3[C@@H]1C[C@@H](O)[C@@H]2O [estriol]	3	−5.000	
C[C@]12CCC(=O)C=C1CC[C@@H]1[C@@H]2CC[C@@]2(C)[C@H]1CC[C@]2(O)C(=O)CO [11-deoxycortisol]	1	−7.881	
C[C@]12CC[C@H]3[C@@H](CCC4=CC(=O)CC[C@@]43C)[C@@H]1CC[C@@H]2C(=O)CO [11-deoxycorticosterone]	1	−7.653	
CC(=O)[C@H]1[C@H](C)C[C@H]2[C@@H]3CCC4=CC(=O)CC[C@]4(C)[C@H]3CC[C@@]21C [16α-methylprogesterone]	1	−7.120	
CC(=O)OCC(=O)[C@@]1(O)CC[C@H]2[C@@H]3CCC4=CC(=O)CC[C@]4(C)[C@H]3[C@@H](O)C[C@@]21C [cortisolacetat]	1	−7.553	
CC(=O)[C@H]1CC[C@H]2[C@@H]3CC=C4C[C@@H](O)CC[C@]4(C)[C@H]3CC[C@]12C [pregnenolone]	3	−5.225	
COC(=O)[C@@]1(O)CCC2C3CCC4=CC(=O)CC[C@]4(C)C3[C@@H](O)C[C@@]21C (stereo partly drawn) [CA-Me GYKI-25806]			IC50 (transcortin (CBG); [4]): 5.9 ± 1.4 nM
CC(=O)[C@@]1(O)[C@H](O)C[C@H]2[C@@H]3CCC4=CC(=O)CC[C@]4(C)[C@H]3CC[C@@]21C [16α,17α-dihydroxyprogesterone]	2	−6.247	
C[C@]12C[C@@H](O)[C@H]3[C@@H](CCC4=CC(=O)CC[C@@]43C)[C@@H]1CC[C@@H]2C(=O)CO [epicorticosterone]	1	−7.200	
CC(=O)[C@@]1(O)CC[C@H]2[C@@H]3CCC4=CC(=O)CC[C@]4(C)[C@H]3CC[C@@]21C [17α-hydroxyprogesterone]	1	−7.740	
C[C@]12C=CC(=O)C=C1CCC1C2C(=O)C[C@@]2(C)C1CC[C@]2(O)C(=O)CO (stereo partly drawn) [Prednisone, prednisone]			IC50 (transcortin (CBG); [4]): 36 ± 11 nM
CC1CC2(C)C(=CC1=O)CCC1C2C(O)CC2(C)C1CCC2(O)C(=O)CO (stereo not drawn) [2α-methylcortisol]	1	−7.688	
C[C@@H]1C[C@@]2(C)C(=CC1=O)CC[C@H]1[C@@H]3CC[C@](O)(C(=O)CO)[C@@]3(C)C[C@H](O)[C@@]12F [2α-methyl-9α-fluoro-cortisol]	2	−5.797	
C[C@]12CC[C@H](O)CC1=CC[C@@H]1[C@@H]2CC[C@]2(C)C(=O)CC[C@@H]12 [dehydroepiandrosterone]	3	−5.000	
C[C@]12C=CC(=O)C=C1CCC1C2[C@@H](O)C[C@@]2(C)C1CC[C@]2(O)C(=O)CO (stereo partly drawn) [Prednisolone, prednisolone]	1		IC50 (transcortin (CBG); CBG Est. IC50 (nM), estimated, unpublished results Bodor, Kurucz 2006): 7 nM; IC50 (transcortin (CBG); IC50-values (nM) average ± SEM (n), 3 nM 3H-cortisol, 1 hour on ice, plasma diluted 100-fold): 6.7 ± 1.6 nM; Vasoconstriction activity (total score of 4 tests) ([2]; 0.1 mM, 2 hr after removal, 4 h application): 0; Vasoconstriction activity (total score of 4 tests) ([2]; 0.1 mM, 4 hr after removal): 0; Vasoconstriction activity (total score of 4 tests) ([2]; 0.1 mM, 6 hr after removal): 0; Vasoconstriction activity (total score of 4 tests) ([2]; 0.1 mM, 8 hr after removal): 0; Vasoconstriction activity (total score of 4 tests) ([2]; 0.1 mM, 10 hr after removal): 0; Vasoconstriction activity (total score of 4 tests) ([2]; 0.1 mM, 16 hr after removal): 0; Vasoconstriction activity (total score of 4 tests) ([2]; 0.1 mM, 18 hr after removal): 0; Vasoconstriction activity (total score of 4 tests) ([2]; 0.1 mM, 24 hr after removal): 0; Vasoconstriction activity (total score of 4 tests) ([2]; 1 mM, 2 hr after removal, 4 h application): 0; Vasoconstriction activity (total score of 4 tests) ([2]; 1 mM, 4 hr after removal): 0; Vasoconstriction activity (total score of 4 tests) ([2]; 1 mM, 6 hr after removal): 0; Vasoconstriction activity (total score of 4 tests) ([2]; 1 mM, 8 hr after removal): 0; Vasoconstriction activity (total score of 4 tests) ([2]; 1 mM, 10 hr after removal): 0; Vasoconstriction activity (total score of 4 tests) ([2]; 1 mM, 16 hr after removal): 0; Vasoconstriction activity (total score of 4 tests) ([2]; 1 mM, 18 hr after removal): 0; Vasoconstriction activity (total score of 4 tests) ([2]; 1 mM, 24 hr after removal): 0; Vasoconstriction activity alone (in words) ([2]; by itself, concentration range 0.1 to 1 mM, human skin, listed as PRN): do not yield any detectable activity; also recorded: no activity
C[C@]12CCC(=O)C=C1CC[C@@H]1[C@@H]2[C@@H](O)C[C@]2(C=O)[C@@H](C(=O)CO)CC[C@@H]12 [aldosterone]	2	−6.279	
C[C@]12CCC(=O)C=C1CC[C@@H]1[C@@H]2CC[C@]2(C)C(=O)CC[C@@H]12 [4-androstenedione]	3	−5.763	
C[C@]12CCC(=O)C=C1CC[C@@H]1[C@@H]2C(=O)C[C@@]2(C)[C@H]1CC[C@]2(O)C(=O)CO [cortisone]	2	−6.892	
C[C@]12C=CC(=O)C=C1CC[C@@H]1[C@@H]2[C@@H](O)C[C@@]2(C)[C@H]1C[C@H]1O[C@@H](C3CCCCC3)O[C@]12C(=O)CO [Ciclesonide, act. metab.]			IC50 (transcortin (CBG); [3]): > 10000 nM
